Measurements published in ChEMBL document CHEMBL5154804, “Species-Selective Targeting of Fungal Hsp90: Design, Synthesis, and Evaluation of Novel 4,5-Diarylisoxazole Derivatives for the Combination Treatment of Azole-Resistant Candidiasis” (J Med Chem, 2022).
≈ marks a conversion by molar mass, not a printed value. Calls of active or inactive are those of the source. The rule behind the calls is not given here.

How the values were obtained:
[1] = tested on: Candida albicans; assay: Synergistic antifungal activity against fluconazole-resistant Candida albicans 901 assessed as inhibition of fungal growth in presence of fluconazole by checker board microdilution assay; assay type: functional
[2] = tested on: Candida albicans; assay: Synergistic antifungal activity against fluconazole-resistant Candida albicans 904 assessed as inhibition of fungal growth in presence of fluconazole by checker board microdilution assay; assay type: functional
[3] = tested on: Candida albicans; assay: Synergistic antifungal activity against fluconazole-resistant Candida albicans 632 assessed as inhibition of fungal growth in presence of fluconazole by checker board microdilution assay; assay type: functional
[4] = tested on: Candida albicans; assay: Synergistic antifungal activity against fluconazole-resistant Candida albicans 100 assessed as inhibition of fungal growth in presence of fluconazole by checker board microdilution assay; assay type: functional
[5] = tested on: Candida albicans; assay: Synergistic antifungal activity against fluconazole-resistant Candida albicans 103 assessed as inhibition of fungal growth in presence of fluconazole by checker board microdilution assay; assay type: functional
[6] = tested on: Candida albicans; assay: Synergistic antifungal activity against fluconazole-resistant Candida albicans 311 assessed as inhibition of fungal growth in presence of fluconazole by checker board microdilution assay; assay type: functional
[7] = tested on: Candida albicans; assay: Antifungal activity against fluconazole-resistant Candida albicans 901 assessed as inhibition of fungal growth by checker board microdilution assay; assay type: functional
[8] = tested on: Candida albicans; assay: Antifungal activity against fluconazole-resistant Candida albicans 904 assessed as inhibition of fungal growth by checker board microdilution assay; assay type: functional
[9] = tested on: Candida albicans; assay: Antifungal activity against fluconazole-resistant Candida albicans 632 assessed as inhibition of fungal growth by checker board microdilution assay; assay type: functional
[10] = tested on: Candida albicans; assay: Antifungal activity against fluconazole-resistant Candida albicans 100 assessed as inhibition of fungal growth by checker board microdilution assay; assay type: functional
[11] = tested on: Candida albicans; assay: Antifungal activity against fluconazole-resistant Candida albicans 103 assessed as inhibition of fungal growth by checker board microdilution assay; assay type: functional
[12] = tested on: Candida albicans; assay: Antifungal activity against fluconazole-resistant Candida albicans 311 assessed as inhibition of fungal growth by checker board microdilution assay; assay type: functional
[13] = tested on: Candida albicans; assay: Synergetic antifungal activity against fluconazole-resistant Candida albicans 901 assessed as fractional inhibitory concentration index in presence of fluconazole by checker board microdilution assay; assay type: functional
[14] = tested on: Candida albicans; assay: Synergetic antifungal activity against fluconazole-resistant Candida albicans 904 assessed as fractional inhibitory concentration index in presence of fluconazole by checker board microdilution assay; assay type: functional
[15] = tested on: Candida albicans; assay: Synergetic antifungal activity against fluconazole-resistant Candida albicans 632 assessed as fractional inhibitory concentration index in presence of fluconazole by checker board microdilution assay; assay type: functional
[16] = tested on: Candida albicans; assay: Synergetic antifungal activity against fluconazole-resistant Candida albicans 100 assessed as fractional inhibitory concentration index in presence of fluconazole by checker board microdilution assay; assay type: functional
[17] = tested on: Candida albicans; assay: Synergetic antifungal activity against fluconazole-resistant Candida albicans 103 assessed as fractional inhibitory concentration index in presence of fluconazole by checker board microdilution assay; assay type: functional
[18] = tested on: Candida albicans; assay: Synergetic antifungal activity against fluconazole-resistant Candida albicans 311 assessed as fractional inhibitory concentration index in presence of fluconazole by checker board microdilution assay; assay type: functional
[19] = tested on: A549; assay: Cytotoxicity against human A549 cell assessed as inhibition of cell growth after 24 hrs by MTT assay; assay type: functional, cell-based; conditions: A549, 24 h
[20] = tested on: MCF7; assay: Cytotoxicity against human MCF7 cell assessed as inhibition of cell growth after 24 hrs by MTT assay; assay type: functional, cell-based; conditions: MCF7, 24 h
[21] = tested on: HepG2; assay: Cytotoxicity against human HepG2 cell assessed as inhibition of cell growth after 24 hrs by MTT assay; assay type: functional, cell-based; conditions: HepG2, 24 h
[22] = Cytotoxicity against human THLE-2 cell assessed as inhibition of cell growth after 24 hrs by MTT assay; assay type: toxicity, cell-based; conditions: THLE-2 cells
[23] = Cytotoxicity against human BEAS-2B cell assessed as inhibition of cell growth after 24 hrs by MTT assay; assay type: toxicity, cell-based; conditions: BEAS-2B cells
[24] = Cytotoxicity against mouse NIH3T3 cell assessed as inhibition of cell growth after 24 hrs by MTT assay; assay type: toxicity, cell-based; conditions: NIH3T3 cells
[25] = tested on: RAW264.7; assay: Cytotoxicity against mouse RAW264.7 cell assessed as inhibition of cell growth after 24 hrs by MTT assay; assay type: functional, cell-based; conditions: RAW264.7, 24 h
[26] = Cytotoxicity against mouse BV-2 cell assessed as inhibition of cell growth after 24 hrs by MTT assay; assay type: toxicity, cell-based; conditions: BV-2 cells
[27] = Binding affinity to recombinant Candida albicans Hsp90 NBD expressed in Escherichia coli by SPR assay
[28] = molecular target: Heat shock protein HSP90 (Homo sapiens, UniProt P07900+P08238); assay: Binding affinity to human Hsp90 expressed in Escherichia coli by SPR assay
[29] = Metabolic stability in human liver microsomes assessed as half life in presence of NADPH cofactor under shaking condition for 10 mins measured after 5 to 60 mins by LC-MS/MS analysis; assay type: ADME, Microsome; conditions: time 15-70 min
[30] = Metabolic stability in human liver microsomes assessed as microsomal intrinsic clearance in presence of NADPH cofactor under shaking condition for 10 mins measured after 5 to 60 mins by LC-MS/MS analysis; assay type: ADME, Microsome; conditions: time 15-70 min
[31] = Metabolic stability in human liver microsomes assessed as intrinsic clearance in presence of NADPH cofactor under shaking condition for 10 mins measured after 5 to 60 mins by LC-MS/MS analysis; assay type: ADME, Microsome; conditions: time 15-70 min
[32] = Metabolic stability in human liver microsomes assessed as compound remaining in presence of NADPH cofactor under shaking condition for 10 mins measured after 60 mins by LC-MS/MS analysis; assay type: ADME, Microsome; conditions: time 70 min, read-out: Stability
[33] = Stability in human plasma assessed as compound remaining at 120 mins by LC-MS/MS analysis; assay type: ADME, cell-free; conditions: read-out: Stability
[34] = Stability in human plasma assessed as half life at 120 mins by LC-MS/MS analysis; assay type: ADME, cell-free
[35] = molecular target: T1, CYP1A2 (Homo sapiens, UniProt P05177); assay: Inhibition of CYP1A2 in human liver microsome at 10 uM using phenacetin as substrate incubated for 10 mins in presence of NADPH cofactor by LC-MS/MS analysis; assay type: ADME; conditions: liver microsomes, probe phenacetin
T1 sequence (P05177 whole entry): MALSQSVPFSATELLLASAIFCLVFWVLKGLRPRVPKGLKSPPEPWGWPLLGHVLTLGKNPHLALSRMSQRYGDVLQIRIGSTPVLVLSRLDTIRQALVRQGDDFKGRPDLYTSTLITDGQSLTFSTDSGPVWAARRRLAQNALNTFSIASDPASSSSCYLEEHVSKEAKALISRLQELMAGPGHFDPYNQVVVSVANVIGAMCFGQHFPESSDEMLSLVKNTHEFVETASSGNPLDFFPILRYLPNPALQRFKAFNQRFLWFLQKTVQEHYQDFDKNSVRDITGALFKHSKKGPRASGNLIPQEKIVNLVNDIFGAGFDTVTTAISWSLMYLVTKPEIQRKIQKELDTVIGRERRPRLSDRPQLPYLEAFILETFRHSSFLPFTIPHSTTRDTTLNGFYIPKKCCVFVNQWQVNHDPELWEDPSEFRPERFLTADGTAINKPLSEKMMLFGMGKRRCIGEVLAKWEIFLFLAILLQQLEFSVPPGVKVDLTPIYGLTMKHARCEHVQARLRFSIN

[36] = molecular target: CYP2C9 (Homo sapiens, UniProt P11712); assay: Inhibition of CYP2C9 in human liver microsome at 10 uM using diclofenac as substrate incubated for 10 mins in presence of NADPH cofactor by LC-MS/MS analysis; assay type: ADME; conditions: liver microsomes, probe diclofenac
Chain of CYP2C9 (P11712 whole entry): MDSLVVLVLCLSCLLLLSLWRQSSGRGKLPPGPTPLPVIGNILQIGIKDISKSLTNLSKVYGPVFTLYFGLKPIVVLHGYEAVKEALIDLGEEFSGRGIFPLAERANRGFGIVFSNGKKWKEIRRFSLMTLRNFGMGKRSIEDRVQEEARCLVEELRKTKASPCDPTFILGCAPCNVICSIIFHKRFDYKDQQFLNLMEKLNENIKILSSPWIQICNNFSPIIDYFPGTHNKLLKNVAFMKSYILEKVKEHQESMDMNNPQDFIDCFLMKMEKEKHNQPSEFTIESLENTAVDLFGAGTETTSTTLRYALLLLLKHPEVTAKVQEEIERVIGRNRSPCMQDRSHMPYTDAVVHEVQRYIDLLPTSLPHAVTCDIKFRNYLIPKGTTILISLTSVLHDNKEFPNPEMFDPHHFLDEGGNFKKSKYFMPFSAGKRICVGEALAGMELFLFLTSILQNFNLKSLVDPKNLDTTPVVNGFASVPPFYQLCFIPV

[37] = molecular target: CYP2C19 (Homo sapiens, UniProt P33261); assay: Inhibition of CYP2C19 in human liver microsome at 10 uM using S-mephenytoin as substrate incubated for 10 mins in presence of NADPH cofactor by LC-MS/MS analysis; assay type: ADME; conditions: liver microsomes, probe S-mephenytoin
Chain of CYP2C19 (P33261 whole entry): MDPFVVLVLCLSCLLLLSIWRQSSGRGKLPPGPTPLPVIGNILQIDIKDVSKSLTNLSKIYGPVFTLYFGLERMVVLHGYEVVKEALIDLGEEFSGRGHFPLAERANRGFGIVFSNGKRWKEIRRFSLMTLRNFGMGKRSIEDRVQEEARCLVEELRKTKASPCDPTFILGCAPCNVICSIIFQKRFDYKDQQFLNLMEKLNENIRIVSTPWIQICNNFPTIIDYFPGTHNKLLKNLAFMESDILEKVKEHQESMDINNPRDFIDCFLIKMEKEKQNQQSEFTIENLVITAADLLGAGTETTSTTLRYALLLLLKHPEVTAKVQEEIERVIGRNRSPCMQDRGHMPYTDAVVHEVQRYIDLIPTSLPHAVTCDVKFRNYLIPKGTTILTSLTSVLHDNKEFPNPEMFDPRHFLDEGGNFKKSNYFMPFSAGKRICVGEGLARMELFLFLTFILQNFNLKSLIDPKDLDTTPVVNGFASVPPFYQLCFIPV

[38] = molecular target: CYP2D6 (Homo sapiens, UniProt P10635); assay: Inhibition of CYPD6 in human liver microsome at 10 uM using dextromethorphan as substrate incubated for 10 mins in presence of NADPH cofactor by LC-MS/MS analysis; assay type: ADME; conditions: liver microsomes, probe dextromethorphan
Chain of CYP2D6 (P10635 whole entry): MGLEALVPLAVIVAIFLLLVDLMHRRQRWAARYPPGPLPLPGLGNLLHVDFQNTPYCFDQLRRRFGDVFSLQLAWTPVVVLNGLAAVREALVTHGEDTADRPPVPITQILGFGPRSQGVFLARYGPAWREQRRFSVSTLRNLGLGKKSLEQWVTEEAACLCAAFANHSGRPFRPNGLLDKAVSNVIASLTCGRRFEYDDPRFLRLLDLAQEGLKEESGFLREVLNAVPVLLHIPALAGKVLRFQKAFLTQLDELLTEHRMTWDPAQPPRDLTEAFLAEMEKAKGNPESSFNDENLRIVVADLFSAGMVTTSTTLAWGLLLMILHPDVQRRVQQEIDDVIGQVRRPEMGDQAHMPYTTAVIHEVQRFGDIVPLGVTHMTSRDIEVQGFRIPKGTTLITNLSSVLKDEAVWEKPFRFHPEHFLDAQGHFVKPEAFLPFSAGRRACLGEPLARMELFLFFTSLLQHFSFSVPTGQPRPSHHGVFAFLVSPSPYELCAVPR

[39] = molecular target: CYP3A4 (Homo sapiens, UniProt P08684); assay: Inhibition of CYP3A4 in human liver microsome at 10 uM using midazolam as substrate incubated for 10 mins in presence of NADPH cofactor by LC-MS/MS analysis; assay type: ADME; conditions: liver microsomes, probe midazolam
Chain of CYP3A4 (P08684 whole entry): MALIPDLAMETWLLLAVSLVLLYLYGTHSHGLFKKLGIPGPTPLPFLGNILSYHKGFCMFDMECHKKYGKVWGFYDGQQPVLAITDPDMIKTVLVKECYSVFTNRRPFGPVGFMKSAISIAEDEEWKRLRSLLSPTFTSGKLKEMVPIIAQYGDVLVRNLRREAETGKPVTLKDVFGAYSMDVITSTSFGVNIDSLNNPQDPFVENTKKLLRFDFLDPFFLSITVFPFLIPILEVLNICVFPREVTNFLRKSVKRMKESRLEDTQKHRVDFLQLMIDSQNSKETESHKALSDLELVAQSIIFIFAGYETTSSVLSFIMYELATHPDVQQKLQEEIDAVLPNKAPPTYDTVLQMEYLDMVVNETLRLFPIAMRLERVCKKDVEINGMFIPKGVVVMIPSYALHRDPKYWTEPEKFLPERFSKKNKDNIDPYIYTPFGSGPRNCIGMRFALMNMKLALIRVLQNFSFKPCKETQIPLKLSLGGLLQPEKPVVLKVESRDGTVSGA

[40] = tested on: Candida albicans; assay: Potentiation of fluconazole-induced antifungal activity against fluconazole-resistant Candida albicans 901 assessed as fluconazole MIC by checker board microdilution assay; assay type: functional
[41] = tested on: Candida albicans; assay: Potentiation of fluconazole-induced antifungal activity against fluconazole-resistant Candida albicans 904 assessed as fluconazole MIC by checker board microdilution assay; assay type: functional
[42] = tested on: Candida albicans; assay: Potentiation of fluconazole-induced antifungal activity against fluconazole-resistant Candida albicans 632 assessed as fluconazole MIC by checker board microdilution assay; assay type: functional
[43] = tested on: Candida albicans; assay: Potentiation of fluconazole-induced antifungal activity against fluconazole-resistant Candida albicans 100 assessed as fluconazole MIC by checker board microdilution assay; assay type: functional
[44] = tested on: Candida albicans; assay: Potentiation of fluconazole-induced antifungal activity against fluconazole-resistant Candida albicans 103 assessed as fluconazole MIC by checker board microdilution assay; assay type: functional
[45] = tested on: Candida albicans; assay: Potentiation of fluconazole-induced antifungal activity against fluconazole-resistant Candida albicans 311 assessed as fluconazole MIC by checker board microdilution assay; assay type: functional
[46] = tested on: Candida albicans; assay: Antibiofilm activity against Candida albicans 904 assessed as inhibition of […] metabolism within the biofilm after 24 hrs by XTT reduction assay; assay type: functional
[47] = tested on: Candida albicans; assay: Antibiofilm activity against Candida albicans 904 assessed as inhibition of […] metabolism within the biofilm after 48 hrs by XTT reduction assay; assay type: functional
[48] = tested on: Candida albicans; assay: Fungicidal activity against Candida albicans 904 assessed as colony forming at 4 times MIC incubated for 48 hrs by time-kill curve assay; assay type: functional
[49] = tested on: Candida albicans; assay: Reversal of fluconazole mediated azole resistant Candida albicans 904 assessed as upregulation of CDR1 expression at 32 ug/ml by RT-PCR; assay type: functional, organism-based; conditions: dose 32.0 µg/ml
[50] = tested on: Candida albicans; assay: Reversal of fluconazole mediated azole resistant Candida albicans 904 assessed as upregulation of CDR2 expression at 32 ug/ml by RT-PCR; assay type: functional, organism-based; conditions: dose 32.0 µg/ml

SMILES: CCNC(=O)c1noc(-c2cc(-c3ccc(C)cc3)c(O)cc2O)c1-c1ccc(CN2CCCCC2)cc1
- MIC80 [1]: 0.25 µg/mL
- MIC80 [2]: 0.25 µg/mL
- MIC80 [3]: 0.5 µg/mL
- MIC80 [4]: 0.25 µg/mL
- MIC80 [5]: 0.5 µg/mL
- MIC80 [6]: 1 µg/mL
- MIC80 [7]: > 64 µg/mL
- MIC80 [8]: > 64 µg/mL
- MIC80 [9]: > 64 µg/mL
- MIC80 [10]: > 64 µg/mL
- MIC80 [11]: > 64 µg/mL
- MIC80 [12]: > 64 µg/mL
- fractional inhibitory concentration index (FICI) [13]: 0.02
- fractional inhibitory concentration index (FICI) [14]: 0.035
- fractional inhibitory concentration index (FICI) [15]: 0.039
- fractional inhibitory concentration index (FICI) [16]: 0.02
- fractional inhibitory concentration index (FICI) [17]: 0.039
- fractional inhibitory concentration index (FICI) [18]: 0.047
- IC50 [19]: 13.8 µM
- IC50 [20]: 5.49 µM
- IC50 [21]: 4.71 µM
- IC50 at 24 h [22]: 5.72 µM
- IC50 at 24 h [23]: 10 µM
- IC50 at 24 h [24]: 0.73 µM
- IC50 [25]: 3.87 µM
- IC50 at 24 h [26]: 4.06 µM
- Kd [27]: 0.139 µM
- Kd [28]: > 25 µM
- half-life [29]: 43.3 min
- CLint [30]: 32 µL/min/mg
- CLint [31]: 28.8 mL/min/kg
- remaining at 1.167 h [32]: 37.9%
- remaining at 2 h [33]: 90.6%
- half-life [34]: > 288 min
- inhibition at 10 min, 10 µM [35]: 12%
- inhibition at 10 min, 10 µM [36]: 39.2%
- inhibition at 10 min, 10 µM [37]: 25.4%
- inhibition at 10 min, 10 µM [38]: 76.6%
- inhibition at 10 min, 10 µM [39]: 39.8%
- MIC80 [40]: 1 µg/mL
- MIC80 [41]: 2 µg/mL
- MIC80 [42]: 2 µg/mL
- MIC80 [43]: 1 µg/mL
- MIC80 [44]: 2 µg/mL
- MIC80 [45]: 2 µg/mL

SMILES: OC(Cn1cncn1)(Cn1cncn1)c1ccc(F)cc1F [FLUCONAZOLE]
- MIC80 [1]: > 64 µg/mL
- MIC80 [2]: > 64 µg/mL
- MIC80 [3]: > 64 µg/mL
- MIC80 [4]: > 64 µg/mL
- MIC80 [5]: > 64 µg/mL
- MIC80 [6]: > 64 µg/mL
- MIC80 [7]: > 64 µg/mL
- MIC80 [8]: > 64 µg/mL
- MIC80 [9]: > 64 µg/mL
- MIC80 [10]: > 64 µg/mL
- MIC80 [11]: 64 µg/mL
- MIC80 [12]: 64 µg/mL
- MIC50 [46]: 32 µg/mL (≈ 104 µM)
- MIC50 [47]: > 64 µg/mL
- MFC [48]: > 64 µg/mL
- Activity [49]: Active
- Activity [50]: Active
